Active and inactive are the calls of the source. No cut-off for these calls is given here.
Legend:
MV4-11 [1] = assay: Cell cycle arrest in human MV4-11 cells assessed as accumulation of cells at G1-phase at 5 uM measured after 24 hrs by propidium iodide staining based flow cytometry (reference value: 61.42%); assay type: functional
MDA-MB-231 [2] = assay: Cell cycle arrest in human MDA-MB-231 cells assessed as accumulation of cells at G2/M-phase at 2.5 uM measured after 24 hrs by propidium iodide staining based flow cytometry (reference value: 11.46%); assay type: functional
MDA-MB-468 [3] = assay: Cell cycle arrest in human MDA-MB-468 cells assessed as accumulation of cells at G2/M-phase at 2.5 uM measured after 24 hrs by propidium iodide staining based flow cytometry (reference value: 26.49%); assay type: functional
MDA-MB-231 [4] = assay: Cell cycle arrest in human MDA-MB-231 cells assessed as accumulation of cells at G1-phase at 2.5 uM measured after 24 hrs by propidium iodide staining based flow cytometry (reference value: 50.27%); assay type: functional
MV4-11 [5] = assay: Cell cycle arrest in human MV4-11 cells assessed as accumulation of cells at G1-phase at 0.16 uM measured after 24 hrs by propidium iodide staining based flow cytometry (reference value: 61.42%); assay type: functional
[6] = target: Glycogen synthase kinase-3 beta (Homo sapiens) (UniProt P49841); conditions: dose 200.0 nM
Sequence of Glycogen synthase kinase-3 beta (Homo sapiens) (P49841 whole entry, looked up): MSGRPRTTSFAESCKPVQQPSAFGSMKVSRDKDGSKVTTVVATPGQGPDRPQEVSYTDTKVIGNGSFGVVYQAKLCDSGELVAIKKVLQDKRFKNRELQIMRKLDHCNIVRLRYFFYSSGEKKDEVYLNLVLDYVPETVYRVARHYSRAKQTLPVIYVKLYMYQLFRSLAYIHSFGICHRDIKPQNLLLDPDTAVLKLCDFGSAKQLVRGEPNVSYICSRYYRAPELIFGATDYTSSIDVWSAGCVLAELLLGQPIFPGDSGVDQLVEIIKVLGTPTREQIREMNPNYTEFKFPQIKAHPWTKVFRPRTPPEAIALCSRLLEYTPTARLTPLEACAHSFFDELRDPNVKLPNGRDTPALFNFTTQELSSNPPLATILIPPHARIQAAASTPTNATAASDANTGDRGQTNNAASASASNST
Description: Inhibition of human GSK3beta relative to control

MDA-MB-468 [7] = assay: Cell cycle arrest in human MDA-MB-468 cells assessed as accumulation of cells at G2/M-phase at 0.16 uM measured after 24 hrs by propidium iodide staining based flow cytometry (reference value: 26.49%); assay type: functional
MV4-11 [8] = assay: Cell cycle arrest in human MV4-11 cells assessed as accumulation of cells at G1-phase at 0.32 uM measured after 24 hrs by propidium iodide staining based flow cytometry (reference value: 61.42%); assay type: functional
MV4-11 [9] = assay: Cell cycle arrest in human MV4-11 cells assessed as accumulation of cells at S-phase at 0.04 uM measured after 24 hrs by propidium iodide staining based flow cytometry (reference value: 23.35%); assay type: functional
[10] = target: T1, Dual specificity tyrosine-phosphorylation-regulated kinase 2 (Homo sapiens) (UniProt Q92630); conditions: Sf21, dose 200.0 nM
T1 sequence (whole entry): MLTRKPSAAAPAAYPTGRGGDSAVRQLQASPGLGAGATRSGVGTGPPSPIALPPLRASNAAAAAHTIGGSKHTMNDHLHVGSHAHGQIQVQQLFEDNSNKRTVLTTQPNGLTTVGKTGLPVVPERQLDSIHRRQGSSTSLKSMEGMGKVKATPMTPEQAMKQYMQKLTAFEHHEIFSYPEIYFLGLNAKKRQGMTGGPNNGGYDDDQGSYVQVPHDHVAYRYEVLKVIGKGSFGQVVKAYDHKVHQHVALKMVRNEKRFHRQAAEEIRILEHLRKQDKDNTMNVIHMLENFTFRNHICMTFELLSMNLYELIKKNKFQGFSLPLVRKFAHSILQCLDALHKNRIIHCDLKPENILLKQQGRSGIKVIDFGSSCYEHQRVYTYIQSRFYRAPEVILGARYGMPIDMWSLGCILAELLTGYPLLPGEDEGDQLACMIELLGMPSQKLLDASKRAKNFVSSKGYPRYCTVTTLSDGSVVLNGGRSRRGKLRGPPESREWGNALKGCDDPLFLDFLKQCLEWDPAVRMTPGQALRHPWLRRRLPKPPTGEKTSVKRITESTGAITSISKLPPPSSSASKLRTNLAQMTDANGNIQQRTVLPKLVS
Description: Inhibition of recombinant human full-length 6His-tagged DYRK2 expressed in baculovirus infected Sf21 insect cells at 200 nM using casein as substrate relative to control

COLO 205 [11] = conditions: Mus musculus, CD1, dose 50.0 mg/kg, route po
MV4-11 [12] = assay: Cell cycle arrest in human MV4-11 cells assessed as accumulation of cells at G1-phase at 1.25 uM measured after 24 hrs by propidium iodide staining based flow cytometry (reference value: 61.42%); assay type: functional
COLO 205 [13] = assay: In vivo inhibition of CDK4/CDK6 in human COLO 205 cells xenografted CD1 nu/nu mouse assessed as reduction in TopoIIalpha expression at 12.5 to 50 mg/kg, po administered via gavage measured after 24 hrs by Western blot analysis; assay type: functional, organism-based; conditions: dose 12.5-50 mg/kg
MV4-11 [14] = assay: Cell cycle arrest in human MV4-11 cells assessed as accumulation of cells at G2/M-phase at 0.16 uM measured after 24 hrs by propidium iodide staining based flow cytometry (reference value: 15.23%); assay type: functional
[15] = Toxicity in human COLO 205 cells xenografted CD1 nu/nu mouse assessed as body weight loss at 50 mg/kg, po administered daily via gavage for 56 days and measured twice per week during compound dosing; assay type: organism-based; conditions: in vivo, 1344 h, time 56 day
MV4-11 [16] = assay: Cell cycle arrest in human MV4-11 cells assessed as accumulation of cells at G2/M-phase at 0.08 uM measured after 24 hrs by propidium iodide staining based flow cytometry (reference value: 15.23%); assay type: functional
COLO 205 [17] = conditions: Mus musculus, CD1, dose 50.0 mg/kg, route po; remark: listed apart in the source
MV4-11 [18] = assay: Cell cycle arrest in human MV4-11 cells assessed as accumulation of cells at G1-phase at 2.5 uM measured after 24 hrs by propidium iodide staining based flow cytometry (reference value: 61.42%); assay type: functional
Calu-6 = conditions: Homo sapiens, dose 50.0 mg/kg, route po, time 21.0 day
COLO 205 [19] = conditions: Homo sapiens, dose 50.0 mg/kg, route po, time > 56.0 day
COLO 205 [20] = assay: Antitumor activity against human COLO 205 cells xenografted in CD1 nu/nu mouse assessed as tumor growth inhibition at 25 to 100 mg/kg, po administered once daily via gavage for 21 days measured twice per week during compound dosing; assay type: functional, organism-based; conditions: dose 25-100 mg/kg, time 21.0 day
Mus musculus = species on record: Mus musculus; conditions: CD1, dose 50.0 mg/kg, route po, time 22.0 day
MV4-11 [21] = assay: Cell cycle arrest in human MV4-11 cells assessed as accumulation of cells at G2/M-phase at […] measured after 24 hrs by propidium iodide staining based flow cytometry (reference value: 15.23%); assay type: functional; conditions: dose 0.625 µM
[22] = Toxicity in human Calu-6 cells xenografted CD1 nu/nu mouse assessed as body weight loss at 50 mg/kg, po administered once daily via gavage for 12 days followed by gemcitabine addition for 4 days and measured twice per week during compound dosing; assay type: organism-based; conditions: in vivo, 384 h, time 16 day
COLO 205 [23] = conditions: Homo sapiens, dose 25-100 mg/kg, route po, time 35.0 day
COLO 205 [24] = conditions: Mus musculus, CD1, dose 50.0 mg/kg, route po; remark: listed apart in the source
COLO 205 [25] = conditions: Mus musculus, CD1, dose 50.0 mg/kg, route po, time lower 1.0 hrs, time upper […], TDE = time-dependent effect
MV4-11 [26] = assay: Cell cycle arrest in human MV4-11 cells assessed as accumulation of cells at G2/M-phase at 2.5 uM measured after 24 hrs by propidium iodide staining based flow cytometry (reference value: 15.23%); assay type: functional

CCN1CCN(Cc2ccc(Nc3ncc(F)c(-c4cc(F)c5nc(C)n(C(C)C)c5c4)n3)nc2)CC1 [ABEMACICLIB]
Activity (MV4-11 [1]): 95.56%
Activity (MDA-MB-231 [2]): 5.77%
Activity (MDA-MB-468 [3]): 28.82%
Activity (MDA-MB-231 [4]): 86.04%
Activity (MV4-11 [5]): 92.68%
inhibition [6]: > 90%
Activity (MDA-MB-468 [7]): 24.55%
Activity (MV4-11 [8]): 95.5%
Activity (MV4-11 [9]): 16.32%
inhibition [10]: > 90%
inhibition (COLO 205 [11]): Active
Activity (MV4-11 [12]): 93.98%
inhibition (COLO 205 [13]): Active
Activity (MV4-11 [14]): 2.73%
Activity [15]: Non-Toxic
Activity (MV4-11 [16]): 1.97%
inhibition (COLO 205 [17]): inactive
Activity (MV4-11 [18]): 94.06%
TGI (Calu-6): Active
TGI (COLO 205 [19]): Active
TGI (COLO 205 [20]): Active
inhibition (Mus musculus): inactive
Activity (MV4-11 [21]): 1.78%
Activity [22]: Non-Toxic
TGI (COLO 205 [23]): Dose-Dependent Effect
inhibition (COLO 205 [24]): Active
inhibition (COLO 205 [25]): Tde
Activity (MV4-11 [26]): 2.96%

From ChEMBL document CHEMBL5678811 (Invest New Drugs, 2014)
